Measured values taken from ChEMBL document CHEMBL5154747, “Discovery of new carbonic anhydrase IX inhibitors as anticancer agents by toning the hydrophobic and hydrophilic rims of the active site to encounter the dual-tail approach” (Eur J Med Chem, 2022).

Assays:
CCRF-CEM = experiment: Anticancer activity against human CCRF-CEM cells assessed as cell growth inhibition incubated for 48 hrs by SRB assay; assay type: functional
K562 = experiment: Anticancer activity against human K562 cells assessed as cell growth inhibition incubated for 48 hrs by SRB assay; assay type: functional
MOLT-4 = experiment: Anticancer activity against human MOLT-4 cells assessed as cell growth inhibition incubated for 48 hrs by SRB assay; assay type: functional
SR = experiment: Anticancer activity against human SR cells assessed as cell growth inhibition incubated for 48 hrs by SRB assay; assay type: functional
A549 = experiment: Anticancer activity against human A549 cells assessed as cell growth inhibition incubated for 48 hrs by SRB assay; assay type: functional
EKVX = experiment: Anticancer activity against human EKVX cells assessed as cell growth inhibition incubated for 48 hrs by SRB assay; assay type: functional
HOP-62 = experiment: Anticancer activity against human HOP-62 cells assessed as cell growth inhibition incubated for 48 hrs by SRB assay; assay type: functional
HOP-92 = experiment: Anticancer activity against human HOP-92 cells assessed as cell growth inhibition incubated for 48 hrs by SRB assay; assay type: functional
NCI-H226 = experiment: Anticancer activity against human NCI-H226 cells assessed as cell growth inhibition incubated for 48 hrs by SRB assay; assay type: functional
NCI-H23 = experiment: Anticancer activity against human NCI-H23 cells assessed as cell growth inhibition incubated for 48 hrs by SRB assay; assay type: functional
NCI-H322M = experiment: Anticancer activity against human NCI-H322M cells assessed as cell growth inhibition incubated for 48 hrs by SRB assay; assay type: functional
NCI-H460 = experiment: Anticancer activity against human NCI-H460 cells assessed as cell growth inhibition incubated for 48 hrs by SRB assay; assay type: functional
NCI-H522 = experiment: Anticancer activity against human NCI-H522 cells assessed as cell growth inhibition incubated for 48 hrs by SRB assay; assay type: functional
HCT-116 = experiment: Anticancer activity against human HCT-116 cells assessed as cell growth inhibition incubated for 48 hrs by SRB assay; assay type: functional
HCT-15 = experiment: Anticancer activity against human HCT-15 cells assessed as cell growth inhibition incubated for 48 hrs by SRB assay; assay type: functional
HT-29 = experiment: Anticancer activity against human HT-29 cells assessed as cell growth inhibition incubated for 48 hrs by SRB assay; assay type: functional
KM12 = experiment: Anticancer activity against human KM12 cells assessed as cell growth inhibition incubated for 48 hrs by SRB assay; assay type: functional
SW-620 = experiment: Anticancer activity against human SW-620 cells assessed as cell growth inhibition incubated for 48 hrs by SRB assay; assay type: functional
SF-268 = experiment: Anticancer activity against human SF-268 cells assessed as cell growth inhibition incubated for 48 hrs by SRB assay; assay type: functional
SF-539 = experiment: Anticancer activity against human SF-539 cells assessed as cell growth inhibition incubated for 48 hrs by SRB assay; assay type: functional
SNB-19 = experiment: Anticancer activity against human SNB-19 cells assessed as cell growth inhibition incubated for 48 hrs by SRB assay; assay type: functional
SNB-75 = experiment: Anticancer activity against human SNB-75 cells assessed as cell growth inhibition incubated for 48 hrs by SRB assay; assay type: functional
U-251 = experiment: Anticancer activity against human U-251 cells assessed as cell growth inhibition incubated for 48 hrs by SRB assay; assay type: functional
Malme-3M = experiment: Anticancer activity against human Malme-3M cells assessed as cell growth inhibition incubated for 48 hrs by SRB assay; assay type: functional
SK-MEL-2 = experiment: Anticancer activity against human SK-MEL-2 cells assessed as cell growth inhibition incubated for 48 hrs by SRB assay; assay type: functional
SK-MEL-5 = experiment: Anticancer activity against human SK-MEL-5 cells assessed as cell growth inhibition incubated for 48 hrs by SRB assay; assay type: functional
UACC-257 = experiment: Anticancer activity against human UACC-257 cells assessed as cell growth inhibition incubated for 48 hrs by SRB assay; assay type: functional
UACC-62 = experiment: Anticancer activity against human UACC-62 cells assessed as cell growth inhibition incubated for 48 hrs by SRB assay; assay type: functional
OVCAR-4 = experiment: Anticancer activity against human OVCAR-4 cells assessed as cell growth inhibition incubated for 48 hrs by SRB assay; assay type: functional
OVCAR-5 = experiment: Anticancer activity against human OVCAR-5 cells assessed as cell growth inhibition incubated for 48 hrs by SRB assay; assay type: functional
OVCAR-8 = experiment: Anticancer activity against human OVCAR-8 cells assessed as cell growth inhibition incubated for 48 hrs by SRB assay; assay type: functional
NCI/ADR-RES = experiment: Anticancer activity against human NCI/ADR-RES cells assessed as cell growth inhibition incubated for 48 hrs by SRB assay; assay type: functional
A498 = experiment: Anticancer activity against human A498 cells assessed as cell growth inhibition incubated for 48 hrs by SRB assay; assay type: functional
RXF 393 [1] = experiment: Anticancer activity against human RXF 393 cells assessed as cell growth inhibition incubated for 48 hrs by SRB assay; assay type: functional
SN12C = experiment: Anticancer activity against human SN12C cells assessed as cell growth inhibition incubated for 48 hrs by SRB assay; assay type: functional
UO-31 = experiment: Anticancer activity against human UO-31 cells assessed as cell growth inhibition incubated for 48 hrs by SRB assay; assay type: functional
MCF7 = experiment: Anticancer activity against human MCF7 cells assessed as cell growth inhibition incubated for 48 hrs by SRB assay; assay type: functional
Hs-578T = experiment: Anticancer activity against human Hs-578T cells assessed as cell growth inhibition incubated for 48 hrs by SRB assay; assay type: functional
T47D = experiment: Anticancer activity against human T47D cells assessed as cell growth inhibition incubated for 48 hrs by SRB assay; assay type: functional
RXF 393 [2] = experiment: Cytotoxicity against human RXF 393 cells assessed as inhibition of cell viability incubated for 72 hrs under hypoxia condition by MTT assay; assay type: functional, cell-based; details: RXF 393, 72 h
[3] = read-out: LC50 (the source's name)

With `NS(=O)(=O)c1ccc(Nc2nc(N/N=C/c3ccccn3)nc(Nc3ccccc3)n2)cc1` the GI50 (CCRF-CEM) was 310 nM, the CC50 (CCRF-CEM; [3]) was > 100000 nM and the GI50 (K562) was 400 nM. For the same molecule, the CC50 (K562; [3]) was > 100000 nM, the GI50 (MOLT-4) was 430 nM and the CC50 (MOLT-4; [3]) was > 100000 nM. The GI50 (SR) was 330 nM, the CC50 (SR; [3]) was > 100000 nM and the GI50 (A549) was 2290 nM. The LC50 (A549) was > 100000 nM, the GI50 (EKVX) was 710 nM and the CC50 (EKVX; [3]) was > 100000 nM. The GI50 (HOP-62) was 550 nM, the CC50 (HOP-62; [3]) was > 100000 nM and the GI50 (HOP-92) was 800 nM. The CC50 (HOP-92; [3]) was > 100000 nM, the GI50 (NCI-H226) was 1070 nM and the CC50 (NCI-H226; [3]) was > 100000 nM. The GI50 (NCI-H23) was 1210 nM, the CC50 (NCI-H23; [3]) was 8410 nM and the GI50 (NCI-H322M) was 400 nM. The CC50 (NCI-H322M; [3]) was > 100000 nM, the GI50 (NCI-H460) was 2410 nM and the CC50 (NCI-H460; [3]) was > 100000 nM. For the same molecule, the GI50 (NCI-H522) was 450 nM, the CC50 (NCI-H522; [3]) was > 100000 nM and the GI50 (HCT-116) was 390 nM. For the same molecule, the LC50 (concentration killing 50% of cells) (HCT-116) was > 100000 nM, the GI50 (HCT-15) was 1450 nM and the CC50 (HCT-15; [3]) was > 100000 nM. The GI50 (HT-29) was 2150 nM, the CC50 (HT-29; [3]) was > 100000 nM and the GI50 (KM12) was 2140 nM. For the same molecule, the CC50 (KM12; [3]) was > 100000 nM, the GI50 (SW-620) was 710 nM and the CC50 (SW-620; [3]) was > 100000 nM. For the same molecule, the GI50 (SF-268) was 460 nM, the LC50 (concentration killing 50% of cells) (SF-268) was > 100000 nM and the GI50 (SF-539) was 680 nM. For the same molecule, the CC50 (SF-539; [3]) was 8000 nM, the GI50 (SNB-19) was 850 nM and the CC50 (SNB-19; [3]) was > 100000 nM. The GI50 (SNB-75) was 1320 nM, the LC50 (concentration killing 50% of cells) (SNB-75) was 5710 nM and the GI50 (U-251) was 510 nM. For the same molecule, the CC50 (U-251; [3]) was > 100000 nM, the GI50 (Malme-3M) was 1000 nM and the CC50 (Malme-3M; [3]) was 6280 nM. For the same molecule, the GI50 (SK-MEL-2) was 1500 nM, the GI50 (SK-MEL-5) was 780 nM and the LC50 (SK-MEL-5) was 4710 nM. For the same molecule, the GI50 (UACC-257) was 2140 nM, the LC50 (UACC-257) was > 100000 nM and the GI50 (UACC-62) was 570 nM. The LC50 (UACC-62) was 6150 nM, the GI50 (OVCAR-4) was 440 nM and the LC50 (concentration killing 50% of cells) (OVCAR-4) was > 100000 nM. The GI50 (OVCAR-5) was 1600 nM, the CC50 (OVCAR-5; [3]) was > 100000 nM and the GI50 (OVCAR-8) was 440 nM. The LC50 (OVCAR-8) was > 100000 nM, the GI50 (NCI/ADR-RES) was 2750 nM and the CC50 (NCI/ADR-RES; [3]) was > 100000 nM. For the same molecule, the GI50 (A498) was 1610 nM, the CC50 (A498; [3]) was 6890 nM and the GI50 (RXF 393 [1]) was 1070 nM. For the same molecule, the CC50 (RXF 393 [1]; [3]) was 6510 nM, the GI50 (SN12C) was 1010 nM and the LC50 (SN12C) was > 100000 nM. It also gave a GI50 (UO-31) of 1500 nM, a CC50 (UO-31; [3]) of 89500 nM and a GI50 (MCF7) of 1100 nM. The LC50 (MCF7) was 6800 nM, the GI50 (Hs-578T) was 1880 nM and the LC50 (concentration killing 50% of cells) (Hs-578T) was > 100000 nM. For the same molecule, the GI50 (T47D) was 470 nM, the LC50 (T47D) was > 100000 nM and the IC50 (RXF 393 [2]) was 3110 nM.
